For 20 molecules, IC50 results are on record in US11427553B2, “Dihydrooxadiazinones” (Bayer Aktiengesellschaft, priority 2017, dated 2022).

One experiment addresses human full length PDE3A (Homo sapiens (Human), UniProt Q14432). The experiment in a line: Assay 4 PDE3A enzyme inhibition (3H-cAMP SPA). The class given is biochemical. To be noted: Sf9 cell extract. The method in brief:
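In this SPA format, the 60-min room-temperature reaction used 0.025 μCi [8-3H]cAMP and diluted full-length PDE3A from Sf9 cells. Percentage activity was plotted against log compound concentration to derive IC50.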

Another experiment relates to SK-MEL-3 cells. The experiment is described as follows: Assay 1 cell proliferation measurement (CTG, 72 h), SK-MEL-3. To be noted: Homo sapiens, SK-MEL3; Assay 1, 72 h, Cell Titer Glo; read-out: SK-MEL-3 IC50 [nM] (melanoma). Format: cell-based, human. The essentials:
(§1)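 Seed cells, incubate overnight at 37 °C; measure baseline viability (CTG, 0 h plate); dose compound in a 10-step 2.5-fold series (max generally 100 nM final, DMSO 0.3%) for 72 h; read CTG luminescence; fit IC50 with 4 parameters.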
(In general: In ATP-based viability assays light output follows the ATP content of the culture.)

For another experiment, the target named is human full length PDE3B (Homo sapiens (Human), UniProt Q13370). The experiment in a line: Assay 5 PDE3B enzyme inhibition (3H-cAMP SPA). Format: biochemical. To be noted: Sf9 cell extract. The essentials:
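Sf9 cell extract expressing human full-length PDE3B, diluted for linear kinetics (<70% substrate use), in 50 mM Tris/HCl pH 7.5, 8.3 mM MgCl2, 1.7 mM EDTA. [8-3H]cAMP substrate, 60 min at room temperature; stopped with yttrium SPA beads, scintillation counting. IC50 from sigmoidal activity vs log concentration curves.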

The test system of the next experiment is HeLa cells. The experiment in a line: Assay 1 cell proliferation measurement (CTG, 72 h), HeLa. The class given is cell-based, human. As to conditions: Homo sapiens, HeLa; Assay 1, 72 h, Cell Titer Glo; read-out: HeLa IC50 [nM] (Cervical cancer). The essentials: as §1

The IC50 is the concentration that gives 50% inhibition.

Chain of human full length PDE3B (Q13370 whole entry): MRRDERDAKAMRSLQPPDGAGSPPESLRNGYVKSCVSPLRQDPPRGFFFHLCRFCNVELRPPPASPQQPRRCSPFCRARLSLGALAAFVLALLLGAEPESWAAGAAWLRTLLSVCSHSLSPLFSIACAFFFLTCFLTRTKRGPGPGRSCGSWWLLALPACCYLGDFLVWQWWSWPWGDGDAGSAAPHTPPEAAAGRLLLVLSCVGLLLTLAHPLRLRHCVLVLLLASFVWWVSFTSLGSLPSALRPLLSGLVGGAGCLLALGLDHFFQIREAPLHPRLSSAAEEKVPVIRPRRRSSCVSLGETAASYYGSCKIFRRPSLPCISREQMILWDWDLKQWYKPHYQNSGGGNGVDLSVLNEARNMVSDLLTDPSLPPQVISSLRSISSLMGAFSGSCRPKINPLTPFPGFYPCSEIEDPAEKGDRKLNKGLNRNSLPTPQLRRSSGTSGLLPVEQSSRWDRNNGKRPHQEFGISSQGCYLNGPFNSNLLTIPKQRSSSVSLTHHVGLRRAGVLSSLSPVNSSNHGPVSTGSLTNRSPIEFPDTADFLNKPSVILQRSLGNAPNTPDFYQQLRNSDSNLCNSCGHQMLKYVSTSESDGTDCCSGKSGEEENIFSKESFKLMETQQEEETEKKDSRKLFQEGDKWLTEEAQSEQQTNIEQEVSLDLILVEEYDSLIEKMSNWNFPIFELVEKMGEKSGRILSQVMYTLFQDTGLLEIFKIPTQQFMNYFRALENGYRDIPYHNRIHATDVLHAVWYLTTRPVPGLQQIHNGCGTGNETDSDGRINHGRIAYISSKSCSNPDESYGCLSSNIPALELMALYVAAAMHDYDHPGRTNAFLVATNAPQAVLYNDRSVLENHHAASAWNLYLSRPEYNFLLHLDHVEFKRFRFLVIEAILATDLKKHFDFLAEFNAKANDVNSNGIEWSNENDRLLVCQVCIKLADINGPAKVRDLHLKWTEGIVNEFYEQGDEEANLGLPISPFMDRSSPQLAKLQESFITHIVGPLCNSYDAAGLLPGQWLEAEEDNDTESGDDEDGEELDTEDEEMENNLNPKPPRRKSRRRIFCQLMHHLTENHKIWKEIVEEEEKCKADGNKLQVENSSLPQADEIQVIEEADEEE
Chain of human full length PDE3A (Q14432 whole entry): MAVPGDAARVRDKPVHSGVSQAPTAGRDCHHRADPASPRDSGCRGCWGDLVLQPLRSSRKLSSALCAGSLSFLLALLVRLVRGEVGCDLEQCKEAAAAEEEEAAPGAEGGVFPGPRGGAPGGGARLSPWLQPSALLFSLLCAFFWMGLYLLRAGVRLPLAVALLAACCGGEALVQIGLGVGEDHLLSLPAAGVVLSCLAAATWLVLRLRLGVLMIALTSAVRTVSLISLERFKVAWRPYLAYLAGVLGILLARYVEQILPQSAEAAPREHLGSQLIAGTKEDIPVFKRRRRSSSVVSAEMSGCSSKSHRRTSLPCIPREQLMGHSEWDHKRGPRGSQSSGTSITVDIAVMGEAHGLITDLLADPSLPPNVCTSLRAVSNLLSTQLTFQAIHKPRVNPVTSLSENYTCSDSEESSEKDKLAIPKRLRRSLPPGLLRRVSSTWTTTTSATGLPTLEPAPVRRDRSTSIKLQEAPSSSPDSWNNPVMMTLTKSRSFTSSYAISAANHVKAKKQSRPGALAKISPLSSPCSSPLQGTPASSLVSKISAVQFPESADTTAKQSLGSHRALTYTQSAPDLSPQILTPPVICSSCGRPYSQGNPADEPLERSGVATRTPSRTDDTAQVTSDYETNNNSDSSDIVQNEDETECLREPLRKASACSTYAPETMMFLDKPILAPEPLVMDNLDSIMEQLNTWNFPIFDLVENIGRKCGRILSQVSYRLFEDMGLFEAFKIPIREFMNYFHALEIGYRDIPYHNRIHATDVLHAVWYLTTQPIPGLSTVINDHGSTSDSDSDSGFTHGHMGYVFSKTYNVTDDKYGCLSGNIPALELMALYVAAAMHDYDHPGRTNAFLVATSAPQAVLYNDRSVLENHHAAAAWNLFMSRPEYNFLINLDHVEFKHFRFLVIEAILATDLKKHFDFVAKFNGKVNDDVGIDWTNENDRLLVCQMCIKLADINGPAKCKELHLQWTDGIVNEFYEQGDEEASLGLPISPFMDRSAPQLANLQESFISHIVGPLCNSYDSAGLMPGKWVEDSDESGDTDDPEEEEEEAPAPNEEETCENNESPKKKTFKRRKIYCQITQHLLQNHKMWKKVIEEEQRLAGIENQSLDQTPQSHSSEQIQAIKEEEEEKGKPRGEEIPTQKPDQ

Turning to `CC(C)=Cc1ccc(C2=NNC(=O)OC2)cc1C(F)(F)F` [Example 63, 5-[4-(2-Methylprop-1-en-1-yl)-3-(trifluoromethyl)phenyl]-3,6-dihydro-2H-1,3,4-oxadiazin-2-one], the half-inhibitory concentration (IC50) was determined as 31 nM against human full length PDE3A, 3 nM with SK-MEL-3 cells, 33 nM at human full length PDE3B and 1 nM with HeLa cells.

Regarding `O=C1NN=C(c2ccc(-c3cccc(F)c3F)c(C(F)(F)F)c2)CO1` [Example 64, 5-[2′,3′-Difluoro-2-(trifluoromethyl)biphenyl-4-yl]-3,6-dihydro-2H-1,3,4-oxadiazin-2-one], the IC50 amounted to 221 nM on human full length PDE3A, 41 nM in the experiment with SK-MEL-3 cells, 193 nM on human full length PDE3B and 17 nM in the experiment with HeLa cells.

As for `O=C1NN=C(c2ccc(N3CCOCC3)c(C(F)(F)F)c2)CO1` [Example 65, 5-[4-(Morpholin-4-yl)-3-(trifluoromethyl)phenyl]-3,6-dihydro-2H-1,3,4-oxadiazin-2-one], the 50% inhibitory concentration (IC50) on human full length PDE3A was 25 nM; with SK-MEL-3 cells it was 3 nM; on human full length PDE3B, 30 nM; in the experiment with HeLa cells, 2 nM.

Regarding `CCCCNc1ccc(C2=NNC(=O)OC2)cc1C(F)(F)F` [Example 66, 5-[4-(Butylamino)-3-(trifluoromethyl)phenyl]-3,6-dihydro-2H-1,3,4-oxadiazin-2-one], the half-maximal inhibitory concentration (IC50) worked out at 65 nM on human full length PDE3A, 3 nM in the experiment on SK-MEL-3 cells, 95 nM against human full length PDE3B and 2 nM in the experiment with HeLa cells.

Consider `CCNc1ccc(C2=NNC(=O)OC2)cc1C(F)(F)F` [Example 67, 5-[4-(Ethylamino)-3-(trifluoromethyl)phenyl]-3,6-dihydro-2H-1,3,4-oxadiazin-2-one], for which the IC50 against human full length PDE3A was 47 nM; in the experiment on SK-MEL-3 cells, 5 nM; at human full length PDE3B, 63 nM; in the experiment on HeLa cells it was 3 nM.

For `Cn1cc(-c2ccc(C3=NNC(=O)OC3)cc2OC(F)(F)F)cn1` [Example 68, 5-[4-(1-Methyl-1H-pyrazol-4-yl)-3-(trifluoromethoxy)phenyl]-3,6-dihydro-2H-1,3,4-oxadiazin-2-one], the IC50 was determined as 81 nM on human full length PDE3A, 6 nM in the experiment on SK-MEL-3 cells, 152 nM against human full length PDE3B and 4 nM in the experiment with HeLa cells.

`CCCNc1ccc(C2=NNC(=O)OC2)cc1C(F)(F)F` [Example 69, 5-[4-(Propylamino)-3-(trifluoromethyl)phenyl]-3,6-dihydro-2H-1,3,4-oxadiazin-2-one]: the IC50 at human full length PDE3A worked out at 31 nM; with SK-MEL-3 cells, 1 nM; on human full length PDE3B, 47 nM; in the experiment on HeLa cells it was 1 nM.

With `Cc1ccc(-c2ccc(C3=NNC(=O)OC3)cc2OC(F)(F)F)cn1` [Example 70, 5-[4-(6-Methylpyridin-3-yl)-3-(trifluoromethoxy)phenyl]-3,6-dihydro-2H-1,3,4-oxadiazin-2-one], the 50% inhibitory concentration (IC50) at human full length PDE3A amounted to 75 nM; with SK-MEL-3 cells, 29 nM; against human full length PDE3B, 170 nM; in the experiment on HeLa cells it was 15 nM.

On to `O=C1NN=C(c2ccc(N3CCC3)c(C(F)(F)F)c2)CO1` [Example 72, 5-[4-(Azetidin-1-yl)-3-(trifluoromethyl)phenyl]-3,6-dihydro-2H-1,3,4-oxadiazin-2-one], for which the IC50 against human full length PDE3A was determined as 74 nM; with SK-MEL-3 cells, 5 nM; against human full length PDE3B, 180 nM; with HeLa cells, 2 nM.

Take `Cn1cnc2ccc(-c3ccc(C4=NNC(=O)OC4)cc3C(F)(F)F)cc21` [Example 73, 5-[4-(1-Methyl-1H-benzimidazol-6-yl)-3-(trifluoromethyl)phenyl]-3,6-dihydro-2H-1,3,4-oxadiazin-2-one]: the half-inhibitory concentration (IC50) on human full length PDE3A was found to be 18 nM; with SK-MEL-3 cells, 46 nM; against human full length PDE3B, 41 nM; in the experiment on HeLa cells, 25 nM.

Consider `CCCCCNc1ccc(C2=NNC(=O)OC2)cc1C(F)(F)F` [Example 74, 5-[4-(Pentylamino)-3-(trifluoromethyl)phenyl]-3,6-dihydro-2H-1,3,4-oxadiazin-2-one], for which the IC50 against human full length PDE3A was determined as 42 nM; with SK-MEL-3 cells, 23 nM; on human full length PDE3B, 100 nM; in the experiment on HeLa cells it was 11 nM.

As to `Cn1ncc2ccc(-c3ccc(C4=NNC(=O)OC4)cc3C(F)(F)F)cc21` [Example 75, 5-[4-(1-Methyl-1H-indazol-6-yl)-3-(trifluoromethyl)phenyl]-3,6-dihydro-2H-1,3,4-oxadiazin-2-one], the IC50 was 31 nM at human full length PDE3A, 44 nM in the experiment with SK-MEL-3 cells, 78 nM on human full length PDE3B and 22 nM in the experiment with HeLa cells.

Consider `O=C1NN=C(c2ccc(-c3ccc(F)nc3)c(F)c2)CO1` [Example 77, 5-[3-Fluoro-4-(6-fluoropyridin-3-yl)phenyl]-3,6-dihydro-2H-1,3,4-oxadiazin-2-one], for which the IC50 against human full length PDE3A turned out to be 33 nM; with SK-MEL-3 cells, 16 nM; against human full length PDE3B, 83 nM; in the experiment on HeLa cells, 8 nM.

Turning to `Cc1cnccc1-c1ccc(C2=NNC(=O)OC2)cc1F` [Example 78, 5-[3-Fluoro-4-(3-methylpyridin-4-yl)phenyl]-3,6-dihydro-2H-1,3,4-oxadiazin-2-one], the IC50 was 29 nM on human full length PDE3A, 21 nM in the experiment on SK-MEL-3 cells, 48 nM on human full length PDE3B and 10 nM with HeLa cells.

For the molecule `Cc1cc(-c2ccc(C3=NNC(=O)OC3)cc2F)ccn1` [Example 79, 5-[3-Fluoro-4-(2-methylpyridin-4-yl)phenyl]-3,6-dihydro-2H-1,3,4-oxadiazin-2-one], the IC50 on human full length PDE3A came to 29 nM; with SK-MEL-3 cells it was 25 nM; against human full length PDE3B it was 71 nM; in the experiment with HeLa cells it was 12 nM.

As to `Nc1ccc(-c2ccc(C3=NNC(=O)OC3)cc2F)cc1` [Example 80, 5-(4′-Amino-2-fluorobiphenyl-4-yl)-3,6-dihydro-2H-1,3,4-oxadiazin-2-one], the IC50 turned out to be 34 nM against human full length PDE3A, 6 nM in the experiment on SK-MEL-3 cells, 87 nM against human full length PDE3B and 2 nM with HeLa cells.

Regarding `Cc1ccccc1-c1ccc(C2=NNC(=O)OC2)cc1F` [Example 81, 5-(2-Fluoro-2′-methylbiphenyl-4-yl)-3,6-dihydro-2H-1,3,4-oxadiazin-2-one], the 50% inhibitory concentration (IC50) is 130 nM against human full length PDE3A, 9 nM in the experiment with SK-MEL-3 cells, 270 nM at human full length PDE3B and 4 nM with HeLa cells.

In the case of `O=C1NN=C(c2ccc(-c3ccc(F)cc3Cl)c(F)c2)CO1` [Example 82, 5-(2′-Chloro-2,4′-difluorobiphenyl-4-yl)-3,6-dihydro-2H-1,3,4-oxadiazin-2-one], the IC50 is 200 nM at human full length PDE3A, 9 nM in the experiment on SK-MEL-3 cells, 320 nM against human full length PDE3B and 4 nM in the experiment on HeLa cells.

Turning to `O=C1NN=C(c2ccc(C3=CCCC3)c(F)c2)CO1` [Example 83, 5-[4-(Cyclopent-1-en-1-yl)-3-fluorophenyl]-3,6-dihydro-2H-1,3,4-oxadiazin-2-one], the IC50 against human full length PDE3A amounted to 100 nM; with SK-MEL-3 cells, 6 nM; against human full length PDE3B, 250 nM; in the experiment with HeLa cells, 3 nM.

`CCc1ccccc1-c1ccc(C2=NNC(=O)OC2)cc1F` [Example 84, 5-(2′-Ethyl-2-fluorobiphenyl-4-yl)-3,6-dihydro-2H-1,3,4-oxadiazin-2-one]: the IC50 was 150 nM against human full length PDE3A, 48 nM in the experiment on SK-MEL-3 cells, 320 nM against human full length PDE3B and 19 nM with HeLa cells.
